Assay results taken from US20050074404A1, “Methods for avoiding renal injury” (Pfizer Inc., priority 2002, published 2005).

How the values were obtained:
rat kidney [1] = test: Histopathology of rat kidney (H & E); assay type: in vivo
Description: (§1) The physiological events that characterize the onset of phospholipidosis are well known to those with skill in the art (see, for example, Girton (2002)). […] Following endocytosis, the aminoglycoside accumulates in lysosomes. The lysosomes eventually swell with excess lipid debris. When visualized using electron-microscopy, the accumulated lipid appear as phospholipid inclusions, or myelin figures, within the lysosomes (Kosek et al. (1974)) (see FIG. 1 and FIG. 2 below). The phospholipid inclusions may also be visualized by staining with Sudan black as described, for example, in Presnell and Schreibman (1997) (see FIG. 3 below). The damage to renal tissue from phospholipidosis may be visualized by histological examination using hematoxylin and eosin staining (H & E) of the renal tissue damaged through phospholipidosis. The damage that is evident includes tubular degeneration, vacuolation and eventually, in advanced stages of damage, necrosis of the renal proximal tubule (see FIG. 5 and FIG. 6 below).
(§2) Male Sprague Dawley rats (105-125 grams each) were purchased from Charles River (Kingston, N.Y.). […] Rats were dosed intramuscular, using a 25 gauge tuberculin syringe. The animals were housed individually prior to urine collection. For the urine collection, rats were transferred to individual metabolism cages. At all times throughout the study, the animals had free access to food and water. […] Rats were dosed once per day for the duration of 1, 4 or 9 days. Urine was collected after one dose, four doses and nine doses. Each collection period was for 24 hours. Urine was collected, chilled to approximately 4° C. and protected from light. Total urine volume was measured at the end of each collection period prior to retinol analysis. The urine was stored at −80° C. and in darkness to protect the components of the urine from oxidation and degration until analysis.

[2] = Urinary retinol concentrations in rats (HPLC); assay type: in vivo, rat; details: 100 mg/kg intramuscular once per day, 24 h urine
Description: A. Dosing of Mammals, Collection and Storage of Urine
as §2
B. Measurement of Retinol in Urine Samples
The acetonitrile, methanol, isopropanol and tetrahydrofuran (THF) were purchased from J. T. Baker (Phillipsburg, N.J.). The acetonitrile and methanol were HPLC grade and the isopropanol and THF were ACS reagent grade. The water in the mobile phase came from a Nanopure® water filtration system (Barnstead, Dubuque, Ind.). Retinol and retinol acetate standards were purchased from ICN Biomedicals (Costa Mesa, Calif.). The retinol palmitate was purchased from Sigma Chemicals (St. Louis, Mo.).
The HPLC instrumentation consisted of a Hewlett-Packard Model 1090 Series II system (Hewlett Packard Company, Palo Alto, Calif.) equipped with a tertiary gradient pump, diode array detector, and a cooled auto-sampler. Hewlett-Packard Chemstation™ software (Rev. 5.02) was used for data collection and analysis. Absorbance data for all retinols was collected at a wavelength of 340 nm. All separations were carried out on a 15 cm×2.0 mm, 5μ particle size, Prodigy ODS (2) HPLC column (Phenomenex, Torrance, Calif.). The column was equipped with an inlet filter, 0.5μ×1.5 mm (Phenomenex, Torrance, Calif.). […]

rat kidney [3] = test: Sudan black staining of rat kidney for phospholipids; assay type: in vivo
Description: as §1, §2

[4] = Urinary albumin concentrations in rats; assay type: in vivo, rat; details: 100 mg/kg once per day
Description: as §2

rat proximal tubule = test: Electron microscopy of rat proximal tubule; assay type: in vivo; details: four days of treatment with 100 mg/kg
Description: as §1
Male Sprague Dawley rats (105-125 grams each) were purchased from Charles River (Kingston, N.Y.). […] Rats were dosed intramuscular, using a 25 gauge tuberculin syringe. The animals were housed individually prior to urine collection. […] Total urine volume was measured at the end of each collection period prior to retinol analysis. […]

For Gentamicin sulfate, the “Histopathologic effects, onset” value (rat kidney [1]; 100 mg/kg once per day) was “do not begin to appear until day four”, the “Chronic Progressive Nephropathy, slight, number of animals” value (rat kidney [1]; 100 mg/kg, Day 1, of 8 rats) was 1 and the “Hyaline droplets, slight, number of animals” value (from here on “Hyaline droplets, slight”) (rat kidney [1]; 100 mg/kg, Day 1, of 8 rats) was 3. The “No significant findings, number of animals” value (rat kidney [1]; 100 mg/kg, Day 1, of 8 rats) was 4, the “Chronic Progressive Nephropathy, slight, number of animals” value (rat kidney [1]; 100 mg/kg, Day 4, of 8 rats) was 2 and the “Hyaline droplets, mild, number of animals” value (rat kidney [1]; 100 mg/kg, Day 4, of 8 rats) was 1. For the same substance, the “Hyaline droplets, slight” value (rat kidney [1]; 100 mg/kg, Day 4, of 8 rats) was 3, the “Tubular degeneration (1), mild, number of animals” value (rat kidney [1]; 100 mg/kg, Day 4, of 8 rats) was 2 and the “Tubular degeneration (1), slight, number of animals” value (rat kidney [1]; 100 mg/kg, Day 4, of 8 rats) was 6. For the same substance, the “Tubular vacuolation, mild, number of animals” value (rat kidney [1]; 100 mg/kg, Day 4, of 8 rats) was 3, the “Tubular vacuolation, slight, number of animals” value (rat kidney [1]; 100 mg/kg, Day 4, of 8 rats) was 3 and the “Hyaline droplets, mild, number of animals” value (rat kidney [1]; 100 mg/kg, Day 9, of 8 rats) was 4. The “Hyaline droplets, slight” value (rat kidney [1]; 100 mg/kg, Day 9, of 8 rats) was 1, the “Tubular degeneration/necrosis/regeneration (3), marked, number of animals” value (rat kidney [1]; 100 mg/kg, Day 9, of 8 rats) was 6 and the “Tubular degeneration/necrosis/regeneration (3), severe, number of animals” value (rat kidney [1]; 100 mg/kg, Day 9, of 8 rats) was 2. For the same substance, the “Tubular vacuolation, mild, number of animals” value (rat kidney [1]; 100 mg/kg, Day 9, of 8 rats) was 2, the “Tubular vacuolation, moderate, number of animals” value (rat kidney [1]; 100 mg/kg, Day 9, of 8 rats) was 4 and the “Tubular vacuolation, slight, number of animals” value (rat kidney [1]; 100 mg/kg, Day 9, of 8 rats) was 1. The “Rat kidney tissue histology (FIG. 5)” value (rat kidney [1]; four days of treatment with 100 mg/kg) was “early lesions formation”, the “Rat kidney tissue histology (FIG. 6)” value (rat kidney [1]; nine days of treatment with 100 mg/kg) was “extensive kidney tissue damage” and the Urinary retinol concentration ([2]; Day 1, mean of eight rats) was 123.57 nM. The Urinary retinol concentration ([2]; Day 4, mean of eight rats) was 131.08 nM, the Urinary retinol concentration ([2]; Day 9, mean of eight rats) was 2457.13 nM and the “Significant Sudan black staining, onset” value (rat kidney [3]; 100 mg/kg once per day) was “not observed until day four”. For the same substance, the “Sudan black staining negative, number of animals” value (rat kidney [3]; 100 mg/kg, Day 1, of 8 rats) was 3, the “Sudan black staining slight, number of animals” value (rat kidney [3]; 100 mg/kg, Day 1, of 8 rats) was 5 and the “Sudan black staining mild, number of animals” value (rat kidney [3]; 100 mg/kg, Day 4, of 8 rats) was 1. For the same substance, the “Sudan black staining mild-moderate, number of animals” value (rat kidney [3]; 100 mg/kg, Day 4, of 8 rats) was 2, the “Sudan black staining moderate, number of animals” value (rat kidney [3]; 100 mg/kg, Day 4, of 8 rats) was 2 and the “Sudan black staining moderate-marked, number of animals” value (rat kidney [3]; 100 mg/kg, Day 4, of 8 rats) was 3. The “Sudan black staining marked, number of animals” value (rat kidney [3]; 100 mg/kg, Day 9, of 8 rats) was 1, the “Sudan black staining mild, number of animals” value (rat kidney [3]; 100 mg/kg, Day 9, of 8 rats) was 1 and the “Sudan black staining mild-moderate, number of animals” value (rat kidney [3]; 100 mg/kg, Day 9, of 8 rats) was 1. The “Sudan black staining moderate, number of animals” value (rat kidney [3]; 100 mg/kg, Day 9, of 8 rats) was 2, the “Sudan black staining moderate-marked, number of animals” value (rat kidney [3]; 100 mg/kg, Day 9, of 8 rats) was 3 and the Sudan black staining (rat kidney [3]; after a single dose (100 mg/kg)) was “slight staining”. It also gave a Urinary albumin concentration ([4]; Day 1, mean of eight rats) of 163 µg/mL, a Urinary albumin concentration ([4]; Day 4, mean of eight rats) of 354 µg/mL and a Urinary albumin concentration ([4]; Day 9, mean of eight rats) of 1184 µg/mL. For the same substance, the “Electron-micrograph finding in rat proximal tubule (FIG. 1)” value (rat proximal tubule) was “phospholipid inclusions or myelin figures”.
